Structures can show the parent of a compound that is named as a salt.
Tested on: RKO human colon adenocarcinoma cells (RKOp27 subclone), proliferating
Assay: Alamar Blue cell viability assay, RKO p27 uninduced (proliferating)
Settings: RKOp27, 72 h, read-out: −log EC50 [mol/l] RKO p27 uninduced (proliferating), anti-proliferative/cytotoxic activity (converted)
Procedure: The anti-proliferative/cytotoxic activity of the compounds described herein can be tested on subclones of RKO human colon adenocarcinoma cells (Schmidt et al., Oncogene 19, 2423-2429; 2000) using the Alamar Blue cell viability assay (described in O'Brien et al. Eur J Biochem 267, 5421-5426, 2000). The compounds are dissolved as 10 mM solutions in DMSO and subsequently diluted in semi-logarithmic steps. DMSO dilutions are further diluted 1:100 into Dulbecco's modified Eagle's medium (DMEM) containing 10% fetal calf serum to a final concentration twice as much as the final concentration in the test. RKO subclones are seeded into 96 well flat bottom plates at a density of 4000 cells per well in a volume of 50 μl per well. 24 hours after seeding the 50 μl each of the compound dilutions in DMEM medium are added into each well of the 96 well plate. Each compound dilution is tested as triplicates. Wells containing untreated control cells are filled with 50 μl DMEM medium containing 1% DMSO. The cells are then incubated with the substances for 72 hours at 37° C. in a humidified atmosphere containing 5% carbon dioxide. To determine the viability of the cells, 10 μl of an Alamar Blue solution (Biosource) are added and the fluorescence is measured at an extinction of 544 nm and an emission of 590 nm. For the calculation of the cell viability the emission value from untreated cells is set as 100% viability and the emission rates of treated cells are set in relation to the values of untreated cells. Viabilities are expressed as % values. The Graphpad Prism program (GraphPad Software, Inc) is used for the calculation of EC50 values for anti-proliferative/cytotoxic activity out of the obtained dose-response curves.
Each compound dilution is tested as triplicates. Wells containing untreated control cells are filled with 50 μl DMEM medium containing 1% DMSO. The cells are then incubated with the substances for 72 hours at 37° C. in a humidified atmosphere containing 5% carbon dioxide. To determine the viability of the cells, 10 μl of an Alamar Blue solution (Biosource) are added and the fluorescence is measured at an extinction of 544 nm and an emission of 590 nm. For the calculation of the cell viability the emission value from untreated cells is set as 100% viability and the emission rates of treated cells are set in relation to the values of untreated cells. Viabilities are expressed as % values. The Graphpad Prism program is used for the calculation of EC50 values out of the obtained dose-response curves. Viability is compared of proliferating cells grown in the absence of the inducer Ponasterone A, versus viability of cells arrested by the expression of ectopic p27Kip1 induced by Ponasterone A.

Structure (SMILES) | EC50 [nM]
CCN(CC)CCN(C)C(=O)N1N=C2c3cc(F)ccc3OC[C@H]2[C@H]1c1ccccc1 (racemic) [Example 45, (3SR,3aSR)-8-Fluoro-3-phenyl-3a,4-dihydro-3H-chromeno[4,3-c]pyrazole-2-carboxylic acid (2-diethylamino-ethyl)-methyl-amide] | ≤ 100
CCN(CC)CCCN(C)C(=O)N1N=C2c3cc(F)ccc3OC[C@H]2[C@H]1c1ccccc1 (racemic) [Example 46, (3SR,3aSR)-8-Fluoro-3-phenyl-3a,4-dihydro-3H-chromeno[4,3-c]pyrazole-2-carboxylic acid (3-diethylamino-propyl)-methyl-amide] | ≤ 100
COCCNCCN(C)C(=O)N1N=C2c3cc(F)ccc3OC[C@H]2[C@H]1c1ccccc1 (racemic) [Example 47, (3SR,3aSR)-8-Fluoro-3-phenyl-3a,4-dihydro-3H-chromeno[4,3-c]pyrazole-2-carboxylic acid [2-(2-methoxy-ethylamino)-ethyl]-methyl-amide] | 100 to 1000
COCCNCCCN(C)C(=O)N1N=C2c3cc(F)ccc3OC[C@H]2[C@H]1c1ccccc1 (racemic) [Example 48, (3SR,3aSR)-8-Fluoro-3-phenyl-3a,4-dihydro-3H-chromeno[4,3-c]pyrazole-2-carboxylic acid [3-(2-methoxy-ethylamino)-propyl]-methyl-amide] | ≤ 100
CN(CCO)CCN(C)C(=O)N1N=C2c3cc(F)ccc3OC[C@H]2[C@H]1c1ccccc1 (racemic) [Example 49, (3SR,3aSR)-8-Fluoro-3-phenyl-3a,4-dihydro-3H-chromeno[4,3-c]pyrazole-2-carboxylic acid {2-[(2-hydroxy-ethyl)-methyl-amino]-ethyl}-methyl-amide] | ≤ 100
CN(CCO)CCCN(C)C(=O)N1N=C2c3cc(F)ccc3OC[C@H]2[C@H]1c1ccccc1 (racemic) [Example 50, (3SR,3aSR)-8-Fluoro-3-phenyl-3a,4-dihydro-3H-chromeno[4,3-c]pyrazole-2-carboxylic acid {3-[(2-hydroxy-ethyl)-methyl-amino]-propyl}-methyl-amide] | ≤ 100
C=CCNCCN(C)C(=O)N1N=C2c3cc(F)ccc3OC[C@H]2[C@H]1c1ccccc1 (racemic) [Example 51, (3SR,3aSR)-8-Fluoro-3-phenyl-3a,4-dihydro-3H-chromeno[4,3-c]pyrazole-2-carboxylic acid (2-allylamino-ethyl)-methyl-amide] | 100 to 1000
C=CCNCCCN(C)C(=O)N1N=C2c3cc(F)ccc3OC[C@H]2[C@H]1c1ccccc1 (racemic) [Example 52, (3SR,3aSR)-8-Fluoro-3-phenyl-3a,4-dihydro-3H-chromeno[4,3-c]pyrazole-2-carboxylic acid (3-allylamino-propyl)-methyl-amide] | 100 to 1000
CCN(C)CCN(C)C(=O)N1N=C2c3cc(F)ccc3OC[C@H]2[C@H]1c1ccccc1 (racemic) [Example 53, (3SR,3aSR)-8-Fluoro-3-phenyl-3a,4-dihydro-3H-chromeno[4,3-c]pyrazole-2-carboxylic acid [2-(ethyl-methyl-amino)-ethyl]-methyl-amide] | ≤ 100
CN(CCCNCC1CC1)C(=O)N1N=C2c3cc(F)ccc3OC[C@H]2[C@H]1c1ccccc1 (racemic) [Example 54, (3SR,3aSR)-8-Fluoro-3-phenyl-3a,4-dihydro-3H-chromeno[4,3-c]pyrazole-2-carboxylic acid [3-(cyclopropylmethyl-amino)-propyl]-methyl-amide] | 100 to 1000
CCN(C)CCCN(C)C(=O)N1N=C2c3cc(F)ccc3OC[C@H]2[C@H]1c1ccccc1 (racemic) [Example 55, (3SR,3aSR)-8-Fluoro-3-phenyl-3a,4-dihydro-3H-chromeno[4,3-c]pyrazole-2-carboxylic acid [3-(ethyl-methyl-amino)-propyl]-methyl-amide] | ≤ 100
CCN(CCCN(C)C(=O)N1N=C2c3cc(F)ccc3OC[C@H]2[C@H]1c1ccccc1)CCOC (racemic) [Example 56, (3SR,3aSR)-8-Fluoro-3-phenyl-3a,4-dihydro-3H-chromeno[4,3-c]pyrazole-2-carboxylic acid {3-[ethyl-(2-methoxy-ethyl)-amino]-propyl}-methyl-amide] | 100 to 1000
CCN(CCOC)CCN(C)C(=O)N1N=C2c3cc(F)ccc3OC[C@H]2[C@H]1c1ccccc1 (racemic) [Example 57, (3SR,3aSR)-8-Fluoro-3-phenyl-3a,4-dihydro-3H-chromeno[4,3-c]pyrazole-2-carboxylic acid {2-[ethyl-(2-methoxy-ethyl)-amino]-ethyl}-methyl-amide] | 100 to 1000
CCN(CCO)CCN(C)C(=O)N1N=C2c3cc(F)ccc3OC[C@@H]2[C@@H]1c1ccccc1 (racemic) [Example 58, (3RS,3aRS)-8-Fluoro-3-phenyl-3a,4-dihydro-3H-chromeno[4,3-c]pyrazole-2-carboxylic acid {2-[ethyl-(2-hydroxy-ethyl)-amino]-ethyl}-methyl-amide] | ≤ 100
CCN(CCO)CCCN(C)C(=O)N1N=C2c3cc(F)ccc3OC[C@@H]2[C@@H]1c1ccccc1 (racemic) [Example 59, (3RS,3aRS)-8-Fluoro-3-phenyl-3a,4-dihydro-3H-chromeno[4,3-c]pyrazole-2-carboxylic acid {3-[ethyl-(2-hydroxy-ethyl)-amino]-propyl}-methyl-amide] | ≤ 100
CN(CCNC1CC1)C(=O)N1N=C2c3cc(F)ccc3OC[C@H]2[C@H]1c1ccccc1 (racemic) [Example 60, (3SR,3aSR)-8-Fluoro-3-phenyl-3a,4-dihydro-3H-chromeno[4,3-c]pyrazole-2-carboxylic acid (2-cyclopropylamino-ethyl)-methyl-amide] | 100 to 1000
CCNCCN(C)C(=O)N1N=C2c3cc(F)ccc3OC[C@H]2[C@H]1c1ccccc1 (racemic) [Example 62, (3SR,3aSR)-8-Fluoro-3-phenyl-3a,4-dihydro-3H-chromeno[4,3-c]pyrazole-2-carboxylic acid (2-ethylamino-ethyl)-methyl-amide] | 100 to 1000
C=CCN(C)CCN(C)C(=O)N1N=C2c3cc(F)ccc3OC[C@H]2[C@H]1c1ccccc1 (racemic) [Example 63, (3SR,3aSR)-8-Fluoro-3-phenyl-3a,4-dihydro-3H-chromeno[4,3-c]pyrazole-2-carboxylic acid [2-(allyl-methyl-amino)-ethyl]-methyl-amide] | 100 to 1000
C#CCN(C)CCN(C)C(=O)N1N=C2c3cc(F)ccc3OC[C@H]2[C@H]1c1ccccc1 (racemic) [Example 64, (3SR,3aSR)-8-Fluoro-3-phenyl-3a,4-dihydro-3H-chromeno[4,3-c]pyrazole-2-carboxylic acid methyl-[2-(methyl-prop-2-ynyl-amino)-ethyl]-amide] | 100 to 1000
CC1CCN(CCN(C)C(=O)N2N=C3c4cc(F)ccc4OC[C@H]3[C@H]2c2ccccc2)CC1 (racemic) [Example 65, (3SR,3aSR)-8-Fluoro-3-phenyl-3a,4-dihydro-3H-chromeno[4,3-c]pyrazole-2-carboxylic acid methyl-[2-(4-methyl-piperidin-1-yl)-ethyl]-amide] | 100 to 1000
CC1CCN(CCCN(C)C(=O)N2N=C3c4cc(F)ccc4OC[C@H]3[C@H]2c2ccccc2)CC1 (racemic) [Example 66, (3SR,3aSR)-8-Fluoro-3-phenyl-3a,4-dihydro-3H-chromeno[4,3-c]pyrazole-2-carboxylic acid methyl-[3-(4-methyl-piperidin-1-yl)-propyl]-amide] | ≤ 100
CN(C)C(=O)N1N=C2c3cc(F)ccc3OC[C@H]2[C@@H]1c1cccc(O)c1 (single isomer, unassigned) [Example 2b, (−)-cis-8-Fluoro-3-(3-hydroxy-phenyl)-3a,4-dihydro-3H-chromeno[4,3-c]pyrazole-2-carboxylic acid dimethylamide] | ≤ 100
CN1CCC(N(C)C(=O)N2N=C3c4cc(F)ccc4OC[C@@H]3[C@@H]2c2cccc(O)c2)CC1 (single isomer, unassigned) [Example 3, (3RS,3aRS)-8-Fluoro-3-(3-hydroxy-phenyl)-3a,4-dihydro-3H-chromeno[4,3-c]pyrazole-2-carboxylic acid methyl-(1-methyl-piperidin-4-yl)-amide] | ≤ 100
CN(CCN)C(=O)N1N=C2c3cc(F)ccc3OC[C@H]2[C@H]1c1ccccc1 (stereo in doubt) [Example 18a, (3SR,3aSR)-8-Fluoro-3-phenyl-3a,4-dihydro-3H-chromeno[4,3-c]pyrazole-2-carboxylic acid (2-amino-ethyl)-methyl-amide] | ≤ 100
CN1CCC(N(C)C(=O)N2N=C3c4cc(F)ccc4OC[C@H]3[C@H]2c2ccccc2)CC1 [Example 9a, (3S,3aS)-8-Fluoro-3-phenyl-3a,4-dihydro-3H-chromeno[4,3-c]pyrazole-2-carboxylic acid methyl-(1-methyl-piperidin-4-yl)-amide] | ≤ 100
CN(C(=O)N1N=C2c3cc(F)ccc3OC[C@H]2[C@H]1c1ccccc1)C1CCNCC1 [Example 16a, (3S,3aS)-8-Fluoro-3-phenyl-3a,4-dihydro-3H-chromeno[4,3-c]pyrazole-2-carboxylic acid methyl-piperidin-4-yl-amide] | ≤ 100
CN(C(=O)N1N=C2c3cc(F)ccc3OC[C@H]2[C@H]1c1cccc(O)c1)C1CCNCC1 [Example 27a, (3S,3aS)-8-Fluoro-3-(3-hydroxy-phenyl)-3a,4-dihydro-3H-chromeno[4,3-c]pyrazole-2-carboxylic acid methyl-piperidin-4-yl-amide] | ≤ 100

Tested on: not given
Assay: not given
Settings: not given

melting point [°C] | Structure (SMILES)
145 | CN(C)CCCN(C)C(=O)N1N=C2c3cc(F)ccc3OC[C@@H]2[C@@H]1c1cccc(O)c1 (racemic) (as salt: salt) [Example 6, (3RS,3aRS)-8-Fluoro-3-(3-hydroxy-phenyl)-3a,4-dihydro-3H-chromeno[4,3-c]pyrazole-2-carboxylic acid (3-dimethylamino-propyl)-methyl-amide]
248 to 250 | CN(C)CCN(C)C(=O)N1N=C2c3cc(F)ccc3OC[C@@H]2[C@@H]1c1ccccc1 (racemic) (as salt: salt) [Example 19, (3RS,3aRS)-8-Fluoro-3-phenyl-3a,4-dihydro-3H-chromeno[4,3-c]pyrazole-2-carboxylic acid (2-dimethylamino-ethyl)-methyl-amide]

From patent US20100104659A1, “BENZOPYRANOPYRAZOLES” (priority 2006, published 2010)
